From patent US9315519B2, “Guanidine substituted tetrahydroisoquinoline compounds as factor XIa inhibitors” (BRISTOL-MYERS SQUIBB COMPANY, priority 2012, dated 2016)
Where a name gives a salt, the structure may show the parent alone.

biological target: purified human Factor XIa (Homo sapiens (Human), UniProt P03951); assay: Factor XIa enzyme inhibition assay (chromogenic substrate S-2366); format: biochemical; details: substrate S-2366, pH 7.4
Method: The effectiveness of compounds of the present invention as inhibitors of the coagulation factors XIa, VIIa, IXa, Xa, XIIa, plasma kallikrein or thrombin, can be determined using a relevant purified serine protease, respectively, and an appropriate synthetic substrate. The rate of hydrolysis of the chromogenic or fluorogenic substrate by the relevant serine protease was measured both in the absence and presence of compounds of the present invention. […] A decrease in the rate of absorbance or fluorescence change in the presence of inhibitor is indicative of enzyme inhibition. Such methods are known to one skilled in the art. The results of this assay are expressed as the inhibitory constant, Ki.
Factor XIa determinations were made in 50 mM HEPES buffer at pH 7.4 containing 145 mM NaCl, 5 mM KCl, and 0.1% PEG 8000 (polyethylene glycol; JT Baker or Fisher Scientific). Determinations were made using purified human Factor XIa at a final concentration of 75-200 pM (Haematologic Technologies) and the synthetic substrate S-2366 (pyroGlu-Pro-Arg-pNA; CHROMOGENIX® or AnaSpec) at a concentration of 0.0002-0.001 M.
The Michaelis constant, Km, for substrate hydrolysis by each protease, was determined at 25° C. using the method of Lineweaver and Burk. Values of Ki were determined by allowing the protease to react with the substrate in the presence of the inhibitor. Reactions were allowed to go for periods of 20-180 minutes (depending on the protease) and the velocities (rate of absorbance or fluorescence change versus time) were measured. The following relationships were used to calculate Ki values: (vo−vs)/vs=I/(Ki(1+S/Km)) for a competitive inhibitor with one binding site; or vs/vo=A+((B−A)/1+((IC50/(I)n))); and Ki=IC50/(1+S/Km) for a competitive inhibitor where: […]

purified human Factor XIa, sequence (P03951 388-625): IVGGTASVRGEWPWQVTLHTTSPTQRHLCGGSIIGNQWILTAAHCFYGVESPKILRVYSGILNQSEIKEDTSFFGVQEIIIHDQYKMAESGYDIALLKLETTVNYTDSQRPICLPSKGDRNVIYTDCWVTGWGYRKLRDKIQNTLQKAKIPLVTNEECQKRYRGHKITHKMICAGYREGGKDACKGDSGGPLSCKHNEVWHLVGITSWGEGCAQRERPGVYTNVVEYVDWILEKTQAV
purified human Factor XIa, sequence (P03951 19-387 partner): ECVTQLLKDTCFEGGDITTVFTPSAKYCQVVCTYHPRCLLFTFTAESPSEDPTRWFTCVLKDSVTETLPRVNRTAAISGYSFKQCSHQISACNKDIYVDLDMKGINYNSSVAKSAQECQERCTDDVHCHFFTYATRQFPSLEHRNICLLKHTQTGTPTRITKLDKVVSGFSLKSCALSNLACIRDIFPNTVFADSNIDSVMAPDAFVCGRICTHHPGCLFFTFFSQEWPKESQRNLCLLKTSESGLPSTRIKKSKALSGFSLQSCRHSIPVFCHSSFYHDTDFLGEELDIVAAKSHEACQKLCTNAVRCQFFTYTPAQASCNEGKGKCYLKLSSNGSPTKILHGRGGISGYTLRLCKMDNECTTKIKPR

| SMILES | Ki [nM] |
| --- | --- |
| N=C(N)N1CCc2nc(C(=O)N3CCc4c(Br)cccc4C3C(=O)Nc3ccc(C(=O)O)cc3)sc2C1 (stereo not drawn) [Example 1, 4-(5-bromo-2-(5-carbamimidoyl-4,5,6,7-tetrahydrothiazolo[5,4-c]pyridine-2-carbonyl)-1,2,3,4-tetrahydroisoquinoline-1-carboxamido)benzoic acid, TFA Salt] | 90.6 |
| COC1CCN(c2cccc3c2CCN(C(=O)c2nc4c(s2)CN(C(=N)N)CC4)C3C(=O)Nc2ccc(C(=O)O)cc2)CC1 (stereo not drawn) [Example 5, 4-(2-(5-carbamimidoyl-4,5,6,7-tetrahydrothiazolo[5,4-c]pyridine-2-carbonyl)-5-(4-methoxypiperidin-1-yl)-1,2,3,4-tetrahydroisoquinoline-1-carboxamido)benzoic acid, TFA salt] | < 5 |
| COC1CCN(c2cccc3c2CCN(C(=O)C2CC4(CCNCC4)C2)C3C(=O)Nc2ccc(C(=O)O)cc2)CC1 (stereo not drawn) [Example 12, 4-(5-(4-methoxypiperidin-1-yl)-2-(7-azaspiro[3.5]nonane-2-carbonyl)-1,2,3,4-tetrahydroisoquinoline-1-carboxamido)benzoic acid, bis TFA Salt] | 190 |

Other lines, results leading:

| Ki [nM] | SMILES |
| --- | --- |
| < 5 | CN1CCN(c2cccc3c2CCN(C(=O)C2CC4(CCN(C(=N)N)CC4)C2)[C@@H]3C(=O)Nc2ccc(C(=O)O)cc2)C(=O)C1 [Example 18, (S)-4-(2-(7-carbamimidoyl-7-azaspiro[3.5]nonane-2-carbonyl)-5-(4-methyl-2-oxopiperazin-1-yl)-1,2,3,4-tetrahydroisoquinoline-1-carboxamido)benzoic acid, bis HCl Salt] |
| 382 | CN1CCN(c2cccc3c2CCN(C(=O)CC2CCN(C(=N)N)CC2)[C@H]3C(=O)Nc2ccc(C(=O)O)cc2)C(=O)C1 [Example 19, (R)-4-(2-(2-(1-carbamimidoylpiperidin-4-yl)acetyl)-5-(4-methyl-2-oxopiperazin-1-yl)-1,2,3,4-tetrahydroisoquinoline-1-carboxamido)benzoic acid, bis-HCl Salt] |
| 5.68 | COC1CCN(c2cccc3c2CCN(C(=O)C2CCN(C(=N)N)CC2)C3C(=O)Nc2ccc(C(=O)O)cc2)CC1 (stereo not drawn) [Example 24, 4-(2-(1-carbamimidoylpiperidine-4-carbonyl)-5-(4-methoxypiperidin-1-yl)-1,2,3,4-tetrahydroisoquinoline-1-carboxamido)benzoic acid, bis-TFA salt] |
